Test results taken from patent US20260373186A1 (Mireca Medicines GmbH, priority 2022, published 2026).
Structures can show the parent of a compound that is named as a salt. Where two headings read alike, the source gives them in different places. Each block holds one compound with its values, some of them ahead of it.

What was measured:
[1] = In vitro drug release from Compound 188-loaded microparticles; format: physicochemical; details: 99% PLGA75125 4A and 1% PLGA5050-PEG5K, PBS with 1% Tween 20, 37 °C
[2] = Drug loading of Compound 188-loaded microparticles (HPLC); format: physicochemical; details: 99% PLGA75125 4A and 1% PLGA5050-PEG5K
[3] = Drug loading of Compound 221-loaded microparticles (HPLC); details: 99% PLGA75125 4A and 1% PLGA5050-PEG5K
[4] = In vitro drug release from Compound 221-loaded implants; format: physicochemical; details: implants (hot melt extrusion), 99% PLGA75125 4A and 1% PLGA5050-PEG5K; PBS with 1% Tween 20, 37 °C
Description: (§1) Compound 221 and biodegradable polymer excipients including PLGA and PLGA-PEG were weighed and thoroughly premixed in a sealed container. The powder blend was fed into an extruder (HAAKE Twin Screw Compounder, Thermo Fisher Scientific), which was pre-set to a temperature of 80-90 °C and a screw speed of 150 rpm. The blend was heated in the extruder and recirculated in the extruder chamber through an internal loop channel for a pre-set duration (e.g., 2-30 min). The filament was extruded at pre-set screw speed (e.g, 10-300 rpm) through a die, guided by a conveying belt and cut into desired length (3-10 mm) for further testing.
(§2) The drug loading of the implants was quantitated by HPLC.

[5] = Drug loading of Compound 221-loaded implants (HPLC); format: physicochemical; details: implants (hot melt extrusion), 99% PLGA75125 4A and 1% PLGA5050-PEG5K
Description: as §1, §2

[6] = In vitro drug release from Compound 221-loaded microparticles; details: 99% PLGA75125 4A and 1% PLGA5050-PEG5K, PBS with 1% Tween 20, 37 °C
[7] = test system: cGMP dependent protein kinase; details: cited from earlier work
[8] = test system: photoreceptors of rd1 explants; experiment: Photoreceptor cell death in rd1 retinal explants (TUNEL); format: cell-based; details: Mus musculus
Description: Legend: The animals at the age of postnatal day 5 (PN5) were killed by decapitation and retinas were dissected out with retinal pigment epithelium attached as described previously (Caffe, A. R.; Ahuja, P.; Holmqvist, B.; Azadi, S.; Forsell, J.; Holmqvist, I.; Soderpalm, A. K.; van Veen, T., Mouse retina explants after long-term culture in serum free medium. J Chem Neuroanat 2001, 22 (4), 263-73). The retinas were flattened out on the membranes of commercially available 6-well culture inserts, after which 1.5 ml of a custom made culturing medium was added to each well. These explants were then kept in culture for two days without any treatment after which the test analog of the invention at the desired concentration was added at a medium change at PN7 (“7” in Figure). […]
Legend: Effects of selected analogs at given concentrations of the invention on the cell death of photoreceptors of rd1 explants. The cell death was assessed by so called TUNEL stain on fixated and sectioned material, after which the number of dying cells was counted and analyzed, and compared with that from untreated rd1 explants. In order to allow more direct comparisons between the different analogs and concentrations a ratio of treated/untreated specimens was calculated. […]

[9] = test system: rd1 and rd2 photoreceptors; details: in vitro; cited from earlier work
[10] = test system: rd1 and rd2 photoreceptors; details: in vivo mouse retinitis pigmentosa models; cited from earlier work

Release duration ([1]; target drug loading 30%): 29 days | Compound 188 loading (w/w) ([2]; target drug loading 30%): 26%
Compound: Cc1ccc(-c2cn3c(=O)c4nc(Br)n([C@@H]5O[C@@H]6CO[P@@](=O)(S)O[C@H]6[C@H]5O)c4nc3[nH]2)cc1 [Compound 188-BEN, 8-bromo-(4-methyl-β-phenyl-1,N^2-etheno)guanosine-3′,5′-cyclic monophosphorothioate, Rp-isomer, N-benzyl-2-phenylethan-1-aminium salt]

Release duration: % released in 49 days ([1]; target drug loading 20%, in 49 days): 32% released | Compound 188 loading (w/w) ([2]; target drug loading 20%): 19.6%
Compound: Cc1ccc(-c2cn3c(=O)c4nc(Br)n([C@@H]5O[C@@H]6CO[P@@](=O)(S)O[C@H]6[C@H]5O)c4nc3[nH]2)cc1 [Compound 188-BEZ, 8-bromo-(4-methyl-β-phenyl-1,N^2-etheno)guanosine-3′,5′-cyclic monophosphorothioate, Rp-isomer, N-benzyl-2-(benzylamino)ethan-1-aminium salt]

Compound 188 loading (w/w) ([2]; target drug loading 30%): 3%
Compound: Cc1ccc(-c2cn3c(=O)c4nc(Br)n([C@@H]5O[C@@H]6CO[P@@](=O)(S)O[C@H]6[C@H]5O)c4nc3[nH]2)cc1 [Compound 188-Ca]

Compound: O=c1c2nc(Br)n([C@@H]3O[C@@H]4CO[P@@](=O)(S)O[C@H]4[C@H]3O)c2nc2[nH]c(-c3ccccc3)cn12 [Compound 221-BEN, 8-bromo-(β-phenyl-1,N^2-etheno)guanosine-3′,5′-cyclic monophosphorothioate, Rp-isomer, N-benzyl-2-phenylethan-1-aminium salt]
Compound 221 loading (w/w) ([3]; target drug loading 30%): 22.5% | Release duration [4]: 40 days | Compound 221 loading (w/w) [5]: 30.0% | Release duration ([6]; target drug loading 30%): 43 days

Compound: O=c1c2nc(Br)n([C@@H]3O[C@@H]4CO[P@@](=O)(S)O[C@H]4[C@H]3O)c2nc2[nH]c(-c3ccccc3)cn12 [Compound 221-BEZ, 8-bromo-(β-phenyl-1,N^2-etheno)guanosine-3′,5′-cyclic monophosphorothioate, Rp-isomer which is N-benzyl-2-(benzylamino)ethan-1-aminium salt]
Compound 221 loading (w/w) ([3]; target drug loading 30%): 14.0% | Release duration [4]: 40 days | Compound 221 loading (w/w) [5]: 30.0% | Release duration ([6]; target drug loading 30%): 35 days

Compound: O=c1c2nc(Br)n([C@@H]3O[C@@H]4CO[P@@](=O)(S)O[C@H]4[C@H]3O)c2nc2[nH]c(-c3ccccc3)cn12 [Compound 221-Ca]
Release duration [4]: 40 days | Compound 221 loading (w/w) [5]: 30.0%

Compound: O=c1c2nc(Br)n([C@@H]3O[C@@H]4CO[P@@](=O)(S)O[C@H]4[C@H]3O)c2nc2[nH]c(-c3ccccc3)cn12 [Compound 221-FA]
Compound 221 loading (w/w) ([3]; target drug loading 10%): 1.2% | Release duration [4]: 26 days | Compound 221 loading (w/w) [5]: 10.5% | Release duration ([6]; target drug loading 10%): 22 days

Compound: O=c1c2nc(Br)n([C@@H]3O[C@@H]4CO[P@@](=O)(S)O[C@H]4[C@H]3O)c2nc2[nH]c(-c3ccccc3)cn12 [Compound 221-Na]
Release duration [4]: 14 days | Compound 221 loading (w/w) [5]: 17.4%

Compound: O=c1c2nc(Br)n([C@@H]3O[C@@H]4CO[P@@](=O)(S)O[C@H]4[C@H]3O)c2nc2[nH]c(-c3ccccc3)cn12 [Compound 221-TEA]
Compound 221 loading (w/w) ([3]; target drug loading 10%): 1.8% | Release duration [4]: 40 days | Compound 221 loading (w/w) [5]: 15.75% | Release duration ([6]; target drug loading 10%): 35 days

Compound: O=c1c2nc(Br)n([C@@H]3O[C@@H]4CO[P@@](O)(=S)O[C@H]4[C@H]3O)c2nc2[nH]c(-c3ccccc3)cn12 [Rp-8-Br-PET-cGMPS]
efficacy / agonistic properties [7]: suboptimal efficacies or even partially agonistic properties | photoreceptor cell death, % of untreated at 50 µM ([8]; TUNEL, untreated = 1.0, n = 8, read-out: effect ratio of treated/untreated specimens (photoreceptor cell death)): ~78% | inhibition at 50 µM ([8]; vs untreated, read-out: reduction of photoreceptor cell death): > 20%

Compound: Nc1nc2c(nc(Br)n2[C@@H]2O[C@@H]3COP(O)(=S)O[C@H]3[C@H]2O)c(=O)[nH]1 (stereo partly drawn) [Rp-8-Br-cGMPS]
protection for rd1 and rd2 photoreceptors [9]: some protection | protection for rd1 and rd2 photoreceptors [10]: some protection
